SMILES strings stand for the structures.

One may read the IC50 as the concentration needed to halve the response being measured.

For series [1], the target named is T1, human α1G T-type channels (Homo sapiens, UniProt O43497).
T1 construct: expressed in transfected cells; host or cells: HEK 293
Briefly: T-type calcium channel block, whole cell patch clamp in HEK cells (α1G). Conditions: HEK cells, patch clamp, mainly non-inactivated protocol; values above 10 μM shown as 10 μM, below 0.30 μM shown as 0.30 μM; read-out: T-type Calcium Channel Block α1G IC50. In kind it is cell-based.

Series [2] relates to absence seizures in GAERS rats. Description: GAERS (Genetic Absence Epilepsy Rats from Strasbourg) epilepsy model, EEG spike and wave discharges. The settings on record: for Percent Recording Time in Seizure Activity, Baseline: 60 minutes pre-injection EEG recording; for Percent Recording Time in Seizure Activity, Post-injection: 120 minutes post-injection EEG recording starting 15 minutes post-drug. In kind it is in vivo, rat. The text has this: The GAERS (Genetic Absence Epilepsy Rats from Strasbourg) is noted for its long and frequently recurring absence seizure episodes. […] Eight female GAERS rats, bred in the Ludwig Institute for Cancer Research, were used for this study. Rats weighed between 180 and 250 g and aged between 18 and 26 weeks at the start of the experiment.
Electrodes were made in our laboratory by soldering together gold-plated sockets (220-S02 Ginder Scientific, VA, Canada), stainless steel teflon coated wire (SDR clinical technology, NSW, Australia) and a small stainless steel screw (1.4×3 mm, Mr. Specks, Australia). Animals were anaethetised with inhalation of Isoflurane in equal parts of medical air and oxygen (5% induction, 2.5-1.5% maintenance) or alternatively by intraperitoneal injection with xylazine (10 mg/kg) and ketamine (75 mg/kg). The animals were fixated in a stereotaxic frame by means of ear bars. A midline incision on the scalp was made, skin and connective tissue was scraped and pushed laterally to expose underlying skull. 6 holes were drilled bilaterally, 2 in the frontal bone and 4 in the parietal bone, approximately 2 mm anterior to bregma, and 4 and 10 mm posterior to bregma. 6 electrodes were implanted in the holes, and gold-plated sockets were clipped into 9-pin ABS plug (GS09PLG-220, Ginder Scientific, Canada). 2 two side-anchoring screws were placed laterally into skull to improve strength of cap fixation, then caps were held in place with dental cement.
Post-operatively, animals were given the analgesic Rimadyl (4 mg/kg), placed in their cages on a heat mat, and observed until recovery. Rats were caged separately throughout the study, weighed and health-checked daily, and were allowed 7 days to recover prior to commencement of the experimental procedures. Rats were allowed free access to rodent chow (brand, WA stock feeders) and water under 12:12 light dark conditions in the Biological Research Facility of the Department of Medicine (RMH).
Prior to first drug treatment, rats were tested for absence-type seizures, which are accompanied by generalised spike and wave discharges (SWD) on an EEG recording. Testing, and all further experiments were performed in a quiet, well lit room with rats in their home cages. Rats were connected via 6-channel wire cables, which were cut and soldered to 6 gold-plated pins inserted into a 9 pin socket. Cables were connected to a computer running Compumedics™ EEG acquisition software (Melbourne, Australia). […] On week 1, day 1 after the acclimation period following surgical implantation of subdural electrodes, 4 animals (#1-4) were habituated with the cable connected for 15 minutes, then had their SWDs recorded for 60 minutes as baseline. Immediately following baseline, rats were given one of the test, reference or control articles according to the treatment schedule, and target period was recorded from 15 after injection for 120 minutes. Animals were monitored throughout the experiment, and were kept quietly wakeful during baseline and target periods
The seizure expression for the 60 minutes pre-injection and 120 minutes post-injection EEG recording (starting 15 minutes post-drug administration) was quantified by marking the start and finish of the burst of SWDs. This was done with the assistance of SWCFinder® software which has been custom designed to quantitate GAERS seizures, and researchers were blinded to the nature of the drug administered, whereby the analysis was performed blinded. Standard criteria for GAERS seizures is an SWD burst of amplitude of more than three times baseline, a frequency of 7 to 12 Hz, and a duration of longer than 0.5 s. From this, the total percent time spent in seizure over the 120 minutes post-injection EEG recording was determined (percentage time in seizure) as the primary outcome variable.

For series [3], the target named is T2, human α1H T-type channels (Homo sapiens, UniProt O95180).
T2 construct: expressed in transfected cells; host or cells: HEK 293
Briefly: T-type calcium channel block, whole cell patch clamp in HEK cells (α1H). In kind it is cell-based. Conditions: HEK cells, patch clamp, mainly non-inactivated protocol; values above 10 μM shown as 10 μM; read-out: T-type Calcium Channel Block α1H IC50. For orientation: In patch-clamp work, channel activity is measured electrically.

Series [4] concerns the target hERG K+ channel (Homo sapiens, UniProt Q12809). Briefly: hERG K+ Channel Block. The series is classed as cell-based. The settings on record: human. (Block of hERG is tested as a sign of cardiac risk.)
For series [5], the system named is spinal nerve ligation model of neuropathic pain. Conditions: rats; Dogrul et al., Pain (2003); cited from earlier work.

T1 sequence (O43497 whole entry): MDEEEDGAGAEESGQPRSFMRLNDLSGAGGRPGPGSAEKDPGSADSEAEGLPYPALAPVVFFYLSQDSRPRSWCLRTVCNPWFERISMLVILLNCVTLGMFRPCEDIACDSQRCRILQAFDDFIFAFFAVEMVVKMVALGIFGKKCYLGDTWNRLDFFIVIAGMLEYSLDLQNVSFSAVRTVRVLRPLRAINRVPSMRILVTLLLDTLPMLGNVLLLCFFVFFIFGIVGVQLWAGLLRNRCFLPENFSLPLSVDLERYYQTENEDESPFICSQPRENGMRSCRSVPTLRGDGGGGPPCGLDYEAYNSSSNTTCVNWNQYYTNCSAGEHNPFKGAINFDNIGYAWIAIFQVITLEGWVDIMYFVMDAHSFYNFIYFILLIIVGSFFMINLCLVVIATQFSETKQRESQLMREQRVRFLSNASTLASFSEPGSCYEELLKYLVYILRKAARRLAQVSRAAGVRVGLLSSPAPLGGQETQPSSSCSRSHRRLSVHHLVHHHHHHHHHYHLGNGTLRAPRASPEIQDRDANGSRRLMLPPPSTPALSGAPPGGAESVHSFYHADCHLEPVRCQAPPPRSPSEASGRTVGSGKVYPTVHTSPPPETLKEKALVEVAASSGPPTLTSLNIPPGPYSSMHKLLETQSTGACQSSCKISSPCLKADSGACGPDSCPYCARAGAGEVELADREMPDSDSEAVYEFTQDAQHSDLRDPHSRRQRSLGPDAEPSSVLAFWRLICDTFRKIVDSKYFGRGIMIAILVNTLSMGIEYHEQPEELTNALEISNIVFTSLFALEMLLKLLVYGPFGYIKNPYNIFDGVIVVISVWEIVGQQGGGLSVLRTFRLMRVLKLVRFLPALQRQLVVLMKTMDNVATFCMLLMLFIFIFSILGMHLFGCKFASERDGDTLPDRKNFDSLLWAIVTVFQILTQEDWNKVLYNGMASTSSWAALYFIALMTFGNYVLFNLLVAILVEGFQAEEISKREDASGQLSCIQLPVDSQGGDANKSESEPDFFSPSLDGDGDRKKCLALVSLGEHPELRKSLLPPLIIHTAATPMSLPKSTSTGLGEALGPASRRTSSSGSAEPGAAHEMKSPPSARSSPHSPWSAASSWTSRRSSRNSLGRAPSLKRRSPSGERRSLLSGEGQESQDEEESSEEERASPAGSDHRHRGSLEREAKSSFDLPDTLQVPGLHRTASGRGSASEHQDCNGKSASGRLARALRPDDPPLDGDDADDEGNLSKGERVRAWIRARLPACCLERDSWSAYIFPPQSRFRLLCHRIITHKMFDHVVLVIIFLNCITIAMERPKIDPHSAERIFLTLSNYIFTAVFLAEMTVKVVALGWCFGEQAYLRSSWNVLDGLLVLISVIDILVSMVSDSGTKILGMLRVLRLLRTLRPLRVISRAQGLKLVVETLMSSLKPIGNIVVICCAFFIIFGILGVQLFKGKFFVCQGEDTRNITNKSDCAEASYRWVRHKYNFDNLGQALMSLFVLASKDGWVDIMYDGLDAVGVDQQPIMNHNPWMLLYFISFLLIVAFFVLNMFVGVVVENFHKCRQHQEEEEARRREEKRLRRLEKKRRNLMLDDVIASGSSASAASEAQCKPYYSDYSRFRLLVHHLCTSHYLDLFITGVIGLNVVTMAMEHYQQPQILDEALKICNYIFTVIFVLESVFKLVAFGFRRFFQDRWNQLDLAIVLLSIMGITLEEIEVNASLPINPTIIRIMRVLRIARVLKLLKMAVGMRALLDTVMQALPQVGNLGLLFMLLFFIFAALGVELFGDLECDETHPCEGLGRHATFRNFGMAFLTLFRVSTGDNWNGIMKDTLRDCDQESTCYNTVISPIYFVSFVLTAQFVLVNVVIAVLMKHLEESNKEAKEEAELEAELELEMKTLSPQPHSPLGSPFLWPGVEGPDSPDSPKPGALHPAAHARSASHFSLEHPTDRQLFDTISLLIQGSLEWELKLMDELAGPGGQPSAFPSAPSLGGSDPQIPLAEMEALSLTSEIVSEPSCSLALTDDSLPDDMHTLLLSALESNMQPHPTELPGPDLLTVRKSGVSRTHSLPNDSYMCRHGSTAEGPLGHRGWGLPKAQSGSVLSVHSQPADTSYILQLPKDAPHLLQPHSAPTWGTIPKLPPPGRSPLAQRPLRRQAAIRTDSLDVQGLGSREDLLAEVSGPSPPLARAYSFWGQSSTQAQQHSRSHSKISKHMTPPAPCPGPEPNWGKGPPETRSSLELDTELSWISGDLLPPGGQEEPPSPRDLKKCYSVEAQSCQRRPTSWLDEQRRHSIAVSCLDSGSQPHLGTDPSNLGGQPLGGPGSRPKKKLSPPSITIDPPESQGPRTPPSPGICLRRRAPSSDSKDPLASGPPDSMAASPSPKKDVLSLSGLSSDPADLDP
hERG K+ channel, sequence (Q12809 whole entry): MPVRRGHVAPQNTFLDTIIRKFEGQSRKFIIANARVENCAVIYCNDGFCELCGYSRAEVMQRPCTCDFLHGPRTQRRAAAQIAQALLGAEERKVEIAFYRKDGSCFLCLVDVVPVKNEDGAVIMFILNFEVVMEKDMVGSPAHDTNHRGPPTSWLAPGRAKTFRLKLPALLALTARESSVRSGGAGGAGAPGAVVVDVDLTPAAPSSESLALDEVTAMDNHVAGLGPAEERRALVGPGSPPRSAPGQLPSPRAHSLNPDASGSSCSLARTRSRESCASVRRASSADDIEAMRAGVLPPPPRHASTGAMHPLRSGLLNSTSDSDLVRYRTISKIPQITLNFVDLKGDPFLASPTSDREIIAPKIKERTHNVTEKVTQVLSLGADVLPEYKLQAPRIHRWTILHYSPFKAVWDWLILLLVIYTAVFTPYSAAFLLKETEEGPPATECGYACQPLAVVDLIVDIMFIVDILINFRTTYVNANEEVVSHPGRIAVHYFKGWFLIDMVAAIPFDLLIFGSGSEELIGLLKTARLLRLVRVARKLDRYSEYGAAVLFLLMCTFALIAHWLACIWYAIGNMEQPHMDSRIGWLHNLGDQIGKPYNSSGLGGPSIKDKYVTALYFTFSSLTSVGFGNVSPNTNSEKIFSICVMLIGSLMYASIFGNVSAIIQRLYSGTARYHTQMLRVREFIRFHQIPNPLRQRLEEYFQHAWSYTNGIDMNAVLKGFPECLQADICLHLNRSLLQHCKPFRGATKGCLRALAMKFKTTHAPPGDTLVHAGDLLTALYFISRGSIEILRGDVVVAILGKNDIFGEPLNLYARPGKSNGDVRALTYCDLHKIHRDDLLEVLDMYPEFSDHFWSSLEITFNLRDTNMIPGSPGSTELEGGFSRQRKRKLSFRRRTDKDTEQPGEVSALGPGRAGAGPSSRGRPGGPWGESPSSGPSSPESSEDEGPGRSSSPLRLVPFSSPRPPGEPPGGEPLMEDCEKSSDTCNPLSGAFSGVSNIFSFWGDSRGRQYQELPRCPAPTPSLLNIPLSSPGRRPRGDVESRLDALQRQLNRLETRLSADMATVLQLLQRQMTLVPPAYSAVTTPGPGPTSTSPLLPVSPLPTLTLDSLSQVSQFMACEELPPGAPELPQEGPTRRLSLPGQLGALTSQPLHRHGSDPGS

Consider `COc1cc(OC)cc(C(=O)NCC2CCN(CC(=O)NC(C)(C)C)CC2)c1` [Compound 368, N-((1-(2-(tert-butylamino)-2-oxoethyl)piperidin-4-yl)methyl)-3,5-dimethoxybenzamide], for which the IC50 in series [1] is below 300 nM; in series [3], 170 nM; in series [4], at least 8300 nM. For the same compound, the “percentage of time in seizure activity compared to both baseline and vehicle” value in series [2] (IP 30 mg/kg) is “significant decrease”.
For `CCC1(C)CC(=O)NC1=O` (stereo not shown) [ethosuximide], the “anti-hyperalgesic activity in the spinal nerve ligation model of neuropathic pain” value in series [5] is reported as “anti-hyperalgesic activity”.
For the compound `CC(C)(C)NC(=O)CN1CCC(CNC(=O)c2cccc(Cl)c2)CC1` [Compound 364, N-((1-(2-(tert-buylamino)-2-oxoethyl)piperidin-4-yl)methyl)-3-chlorobenzamide], the IC50 in series [1] is below 300 nM; in series [3], 230 nM; in series [4], at least 8300 nM. Also, the “Percent Recording Time in Seizure Activity, Baseline” value in series [2] is listed as 12.12 ± 1.82%. For the same compound, in series [2] (IP 30 mg/kg), the “Percent Recording Time in Seizure Activity, Post-injection” value was 0.45 ± 0.20%.
Regarding `COCC(=O)O[C@]1(CCN(C)CCCc2nc3ccccc3[nH]2)CCc2cc(F)ccc2[C@@H]1C(C)C` [mibefradil], in series [5], the “anti-hyperalgesic activity in the spinal nerve ligation model of neuropathic pain” value is listed as “anti-hyperalgesic activity”.
For `CC(C)(C)NC(=O)CN1CCC(CNC(=O)c2cc(F)cc(Cl)c2)CC1` [Compound 367, N-((1-(2-(tert-butylamino)-2-oxoethyl)piperidin-4-yl)methyl)-3-chloro-5-fluorobenzamide], the concentration for half-maximal inhibition (IC50) in series [1] is below 300 nM; in series [3], 50 nM; in series [4], at least 8300 nM. Further, the “Percent Recording Time in Seizure Activity, Baseline” value in series [2] amounted to 9.99 ± 2.07%. Besides, the “Percent Recording Time in Seizure Activity, Post-injection” value in series [2] (IP 30 mg/kg) came to 0.87 ± 0.44%.

(Values after patent publication US8569344B2, “N-piperidinyl acetamide derivatives as calcium channel blockers” (Zalicus Pharmaceuticals Ltd., priority 2008, dated 2013).)
